Measurements reported in ChEMBL document CHEMBL4411307, “N,N'-diaryl-bishydrazones in a biphenyl platform: Broad spectrum antifungal agents” (Eur J Med Chem, 2019).
≈ marks a conversion by molar mass, not a printed value. Calls of active or inactive are those of the source. The rule behind the calls is not given here.

Key:
[1] = tested on: Listeria monocytogenes; test: Antibacterial activity against Listeria monocytogenes; type: functional, organism-based
[2] = tested on: Enterococcus; test: Antibacterial activity against vancomycin-resistant Enterococcus; type: functional, organism-based
[3] = tested on: Candida albicans; test: Antifungal activity against fluconazole/ITC-resistant Candida albicans ATCC 10231 measured after 48 hrs by CLSI M27-A3 protocol based method; type: functional; settings: ATCC 10231, 48 h
[4] = tested on: Candida albicans; test: Antifungal activity against fluconazole/ITC-resistant Candida albicans ATCC 90819 measured after 48 hrs by CLSI M27-A3 protocol based method; type: functional; settings: ATCC 90819, 48 h
[5] = tested on: Candida albicans; test: Antifungal activity against fluconazole/ITC-susceptible Candida albicans ATCC MYA-2310 measured after 48 hrs by CLSI M27-A3 protocol based method; type: functional; settings: ATCC MYA-2310, 48 h
[6] = tested on: Candida albicans; test: Antifungal activity against fluconazole/ITC-resistant Candida albicans ATCC MYA-1237 measured after 48 hrs by CLSI M27-A3 protocol based method; type: functional; settings: ATCC MYA-1237, 48 h
[7] = tested on: Candida albicans; test: Antifungal activity against fluconazole/ITC-resistant Candida albicans ATCC MYA-1003 measured after 48 hrs by CLSI M27-A3 protocol based method; type: functional; settings: ATCC MYA-1003, 48 h
[8] = tested on: Pichia kudriavzevii; test: Antifungal activity against Candida krusei ATCC 6258 measured after 48 hrs by CLSI M27-A3 protocol based method; type: functional; settings: ATCC 6258, 48 h
[9] = tested on: Candida parapsilosis; test: Antifungal activity against Candida parapsilosis ATCC 22019 measured after 48 hrs by CLSI M27-A3 protocol based method; type: functional; settings: Lodderomyces parapsilosis, ATCC 22019, 48 h
[10] = tested on: Aspergillus flavus; test: Antifungal activity against Aspergillus flavus ATCC MYA-3631 measured after 48 hrs by CLSI M38-A2 protocol based method; type: functional; settings: ATCC MYA-3631, 48 h
[11] = tested on: Aspergillus nidulans; test: Antifungal activity against Aspergillus nidulans ATCC 38163 measured after 48 hrs by CLSI M38-A2 protocol based method; type: functional; settings: ATCC 38163, 48 h
[12] = tested on: Aspergillus terreus; test: Antifungal activity against Aspergillus terreus ATCC MYA-3633 measured after 48 hrs by CLSI M38-A2 protocol based method; type: functional; settings: ATCC MYA-3633, 48 h
[13] = tested on: Candida albicans; test: Antibiofilm activity against fluconazole/ITC-resistant Candida albicans ATCC 10231 assessed as reduction in sessile growth after 24 hrs by XTT assay; type: functional; settings: ATCC 10231, 24 h
[14] = tested on: Candida albicans; test: Antibiofilm activity against fluconazole/ITC-resistant Candida albicans ATCC 64124 assessed as reduction in sessile growth after 24 hrs by XTT assay; type: functional; settings: ATCC 64124, 24 h
[15] = tested on: Candida albicans; test: Selectivity ratio of MIC50 for antibiofilm activity against fluconazole/ITC-resistant Candida albicans ATCC 64124 assessed as reduction in sessile growth to MIC for fluconazole/ITC-resistant Candida albicans ATCC 64124; type: functional
[16] = tested on: BEAS-2B; test: Cytotoxicity against human BEAS2B cells after 24 hrs by resazurin based assay; type: cell-based
[17] = Selectivity index, ratio of CC50 for human A549 cells to MIC for fluconazole/ITC-resistant Candida albicans ATCC 64124; type: toxicity; settings: read-out: Selectivity Index
[18] = Selectivity index, ratio of CC50 for human A549 cells to MIC for fluconazole/ITC-resistant Candida albicans ATCC 90819; type: toxicity; settings: read-out: Selectivity Index
[19] = Selectivity index, ratio of CC50 for human A549 cells to MIC for fluconazole/ITC-susceptible Candida albicans ATCC MYA-2310; type: toxicity; settings: read-out: Selectivity Index
[20] = Selectivity index, ratio of CC50 for human A549 cells to MIC for fluconazole/ITC-resistant Candida albicans ATCC MYA-1003; type: toxicity; settings: read-out: Selectivity Index
[21] = Selectivity index, ratio of CC50 for human A549 cells to MIC for Candida glabrata ATCC 2001; type: toxicity; settings: read-out: Selectivity Index
[22] = Selectivity index, ratio of CC50 for human A549 cells to MIC for Candida krusei ATCC 6258; type: toxicity; settings: read-out: Selectivity Index
[23] = Selectivity index, ratio of CC50 for human A549 cells to MIC for Candida parapsilosis ATCC 22019; type: toxicity; settings: read-out: Selectivity Index
[24] = Selectivity index, ratio of CC50 for human A549 cells to MIC for Aspergillus flavus ATCC MYA-3631; type: toxicity; settings: read-out: Selectivity Index
[25] = Hemolytic activity in mouse RBC at […] after 1 hr relative to control; type: ADME, cell-based, Erythrocyte; settings: red blood cells (erythrocytes), read-out: Activity; also: tested at 0.48 µg/mL
[26] = Hemolytic activity in mouse RBC at 1.95 ug/ml after 1 hr relative to control; type: ADME, cell-based, Erythrocyte; settings: red blood cells (erythrocytes), read-out: Activity
[27] = Hemolytic activity in mouse RBC at 3.9 ug/ml after 1 hr relative to control; type: ADME, cell-based, Erythrocyte; settings: red blood cells (erythrocytes), read-out: Activity
[28] = Hemolytic activity in mouse RBC at 7.8 ug/ml after 1 hr relative to control; type: ADME, cell-based, Erythrocyte; settings: red blood cells (erythrocytes), read-out: Activity
[29] = Hemolytic activity in mouse RBC at 62.5 ug/ml after 1 hr relative to control; type: ADME, cell-based, Erythrocyte; settings: red blood cells (erythrocytes), read-out: Activity
[30] = Selectivity index, ratio of compound concentration showing <20 to <30% hemolysis in mouse RBC to MIC for fluconazole/ITC-resistant Candida albicans ATCC 10231; type: toxicity; settings: red blood cells (erythrocytes), read-out: Selectivity Index
[31] = Selectivity index, ratio of compound concentration showing <20 to <30% hemolysis in mouse RBC to MIC for fluconazole/ITC-susceptible Candida albicans ATCC MYA-2876; type: toxicity; settings: red blood cells (erythrocytes), read-out: Selectivity Index
[32] = Selectivity index, ratio of compound concentration showing <20 to <30% hemolysis in mouse RBC to MIC for fluconazole/ITC-susceptible Candida albicans ATCC MYA-2310; type: toxicity; settings: mouse red blood cells (RBC), read-out: Selectivity Index
[33] = Selectivity index, ratio of compound concentration showing <20 to <30% hemolysis in mouse RBC to MIC for fluconazole/ITC-resistant Candida albicans ATCC MYA-1237; type: toxicity; settings: mouse red blood cells (RBC), read-out: Selectivity Index
[34] = Selectivity index, ratio of compound concentration showing <20 to <30% hemolysis in mouse RBC to MIC for fluconazole/ITC-resistant Candida albicans ATCC MYA-1003; type: toxicity; settings: mouse red blood cells (RBC), read-out: Selectivity Index
[35] = Selectivity index, ratio of compound concentration showing <20 to <30% hemolysis in mouse RBC to MIC for Candida glabrata ATCC 2001; type: toxicity; settings: mouse red blood cells (RBC), read-out: Selectivity Index
[36] = Selectivity index, ratio of compound concentration showing <20 to <30% hemolysis in mouse RBC to MIC for Candida krusei ATCC 6258; type: toxicity; settings: mouse red blood cells (RBC), read-out: Selectivity Index
[37] = Selectivity index, ratio of compound concentration showing <20 to <30% hemolysis in mouse RBC to MIC for Candida parapsilosis ATCC 22019; type: toxicity; settings: mouse red blood cells (RBC), read-out: Selectivity Index
[38] = Selectivity index, ratio of compound concentration showing <20 to <30% hemolysis in mouse RBC to MIC for Aspergillus flavus ATCC MYA-3631; type: toxicity; settings: mouse red blood cells (RBC), read-out: Selectivity Index
[39] = Selectivity index, ratio of compound concentration showing <20 to <30% hemolysis in mouse RBC to MIC for Aspergillus nidulans ATCC 38163; type: toxicity; settings: mouse red blood cells (RBC), read-out: Selectivity Index
[40] = Selectivity index, ratio of compound concentration showing <20 to <30% hemolysis in mouse RBC to MIC for Aspergillus terreus ATCC MYA-3633; type: toxicity; settings: mouse red blood cells (RBC), read-out: Selectivity Index

For C/C(=N\Nc1ccc(F)cc1)c1ccc(-c2ccc(/C(C)=N/Nc3ccc(F)cc3)cc2)cc1, the Activity [1] was “inactive”, the Activity [2] was “inactive” and the MIC [3] was 1.95 mg/L (≈ 4.29 µM). It also gave an MIC [4] of 7.8 mg/L (≈ 17.2 µM), an MIC [5] of 1.95 mg/L (≈ 4.29 µM) and an MIC [6] of 7.8 mg/L (≈ 17.2 µM). It also gave an MIC [7] of 7.8 mg/L (≈ 17.2 µM), an MIC [8] of 1.95 mg/L (≈ 4.29 µM) and an MIC [9] of 15.6 mg/L (≈ 34.3 µM). The MIC [10] was over 31.3 mg/L, the MIC [11] was 7.8 mg/L (≈ 17.2 µM) and the MIC [12] was over 31.3 mg/L. For the same compound, the MIC50 [13] was 8 mg/L (≈ 17.6 µM), the MIC90 [13] was over 32 mg/L and the MIC50 [14] was 16 mg/L (≈ 35.2 µM). For the same compound, the MIC90 [14] was over 32 mg/L, the selectivity ratio [15] was 4 and the CC50 [16] was 10.7 mg/L (≈ 23.5 µM). For the same compound, the selectivity ratio [17] was 4.3, the selectivity ratio [18] was 2.1 and the selectivity ratio [19] was 8.5. The selectivity ratio [20] was 2.1, the selectivity ratio [21] was 1.1 and the selectivity ratio [22] was 8.5. The selectivity ratio [23] was 1.1, the selectivity ratio [24] was 0.5 and the hemolysis at 1 h, […] [25] was 0%. The hemolysis at 1 h, 1.95 ug/ml [26] was 2.6%, the hemolysis at 1 h, 3.9 ug/ml [27] was 2.6% and the hemolysis at 1 h, 7.8 ug/ml [28] was 5.9%. The hemolysis at 1 h, 62.5 ug/ml [29] was 26.2%, the selectivity ratio [30] was 1 to 32 and the selectivity ratio [31] was 1 to 32. For the same compound, the selectivity ratio [32] was 1 to 32, the selectivity ratio [33] was 1 to 32 and the selectivity ratio [34] was 1 to 32. For the same compound, the selectivity ratio [35] was 1 to 32, the selectivity ratio [36] was 1 to 32 and the selectivity ratio [37] was 1 to 32. It also gave a selectivity ratio [38] of 1 to 32, a selectivity ratio [39] of 1 to 32 and a selectivity ratio [40] of 1 to 32.
